Assay results from the supplement of paper PMC10307832.

What was measured:
Assay in all cases: relative viability (nuclei count vs DMSO), 5 days (fraction); higher = more cells survive
Sulindac + Foretinib = compound: CC1=C(CC(=O)O)c2cc(F)ccc2/C1=C\c1ccc([S+](C)[O-])cc1 [Sulindac] + COc1cc2c(Oc3ccc(NC(=O)C4(C(=O)Nc5ccc(F)cc5)CC4)cc3F)ccnc2cc1OCCCN1CCOCC1 [Foretinib] (partner 0.25 µM)
Method in brief: (§1)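 Relative viability was taken as the ratio of nuclei in treated wells to nuclei in vehicle wells. Lung cancer cell lines in 1536-well plates received compounds by pin tool one day after seeding, either one drug alone or a fixed anchor-drug dose plus five library-drug doses (not always all listed) in √10 steps. Nuclei were counted on 4× images after 5 days of treatment, and values are medians of duplicate plates.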

[1] = compound: CN[C@@H]1C[C@H]2O[C@@](C)([C@@H]1OC)n1c3ccccc3c3c4c(c5c6ccccc6n2c5c31)C(=O)NC4 [Staurosporine] + Nc1ncn([C@H]2C[C@H](O)[C@@H](CO)O2)c(=O)n1 [Decitabine] (partner 2 µM)
Method in brief: as §1

Sulindac + Lapatinib = compound: CC1=C(CC(=O)O)c2cc(F)ccc2/C1=C\c1ccc([S+](C)[O-])cc1 [Sulindac] + CS(=O)(=O)CCNCc1ccc(-c2ccc3ncnc(Nc4ccc(OCc5cccc(F)c5)c(Cl)c4)c3c2)o1 [Lapatinib] (partner 2 µM)
Method in brief: as §1

[2] = compound: CN[C@@H]1C[C@H]2O[C@@](C)([C@@H]1OC)n1c3ccccc3c3c4c(c5c6ccccc6n2c5c31)C(=O)NC4 [Staurosporine] + Cc1cc(Nc2cc(N3CCN(C)CC3)nc(Sc3ccc(NC(=O)C4CC4)cc3)n2)n[nH]1 [Tozasertib] (partner 0.1 µM)
Method in brief: as §1

Cell Line | relative viability (Sulindac + Foretinib; first compound 0.08 µM) | relative viability (Sulindac + Foretinib; first compound 0.253 µM) | relative viability (Sulindac + Foretinib; first compound 2.53 µM) | relative viability (Sulindac + Foretinib; first compound 8 µM) | relative viability ([1]; first compound 0.005 µM) | relative viability ([1]; first compound 0.01581 µM) | relative viability ([1]; first compound 0.05 µM) | relative viability ([1]; first compound 0.1581 µM) | relative viability ([1]; first compound 0.5 µM) | relative viability (Sulindac + Lapatinib; first compound 0.08 µM) | relative viability (Sulindac + Lapatinib; first compound 0.253 µM) | relative viability (Sulindac + Lapatinib; first compound 0.8 µM) | relative viability (Sulindac + Lapatinib; first compound 2.53 µM) | relative viability (Sulindac + Lapatinib; first compound 8 µM) | relative viability ([2]; first compound 0.005 µM) | relative viability ([2]; first compound 0.01581 µM) | relative viability ([2]; first compound 0.05 µM) | relative viability ([2]; first compound 0.1581 µM) | relative viability ([2]; first compound 0.5 µM) | relative viability (Sulindac + Foretinib; first compound 0.8 µM)
NCI-H1650 | 1.05 | 1.21 | 1.24 | 1.32 | 0.397 | 0.533 | 0.341 | 0.168 | 0.124 | 1.01 | 0.775 | 0.625 | 0.824 | 0.944 | 0.332 | 0.302 | 0.17 | 0.203 | 0.123 | –
NCI-H1651 | 0.899 | 0.848 | 0.764 | 0.88 | 0.623 | 0.509 | 0.324 | 0.146 | 0.131 | 1.07 | 0.836 | 0.736 | 0.829 | 1.09 | 0.66 | 0.675 | 0.371 | 0.237 | 0.185 | –
NCI-H1666 | 1.01 | 1.02 | 0.975 | 1.13 | 0.685 | 0.522 | 0.559 | 0.476 | 0.454 | – | 0.738 | 0.491 | 0.696 | 0.753 | 0.544 | 0.44 | 0.402 | 0.355 | 0.257 | 0.908
NCI-H1734 | 0.864 | 0.956 | 1.03 | 0.958 | 0.495 | 0.353 | 0.215 | 0.147 | 0.122 | 1.06 | 1.08 | 0.893 | 0.986 | 1.44 | 0.314 | 0.206 | 0.191 | 0.132 | 0.0956 | –
NCI-H1755 | 0.976 | 0.974 | 0.916 | 1.03 | 0.757 | 0.634 | 0.483 | 0.336 | 0.133 | 1.34 | 1.04 | 0.912 | 1.06 | 1.19 | 0.474 | 0.311 | 0.207 | 0.184 | 0.219 | 0.848
NCI-H1793 | 0.759 | 0.808 | 0.748 | 0.736 | 0.341 | – | 0.311 | 0.125 | 0.191 | 0.731 | 0.778 | 0.533 | 0.795 | 0.787 | 0.335 | – | 0.299 | 0.182 | 0.186 | 0.54
NCI-H1915 | 1.26 | 1.2 | 1.11 | 1.15 | 0.268 | 0.227 | 0.186 | 0.126 | 0.0975 | 1.24 | 1.09 | 0.842 | 0.913 | 1.1 | 0.45 | 0.229 | 0.217 | 0.108 | 0.154 | –
NCI-H1944 | 0.962 | 0.874 | 0.974 | 1.03 | 0.41 | 0.354 | 0.401 | 0.326 | 0.278 | 0.882 | 0.906 | 0.696 | 0.842 | 0.885 | 0.255 | 0.21 | 0.206 | 0.161 | 0.155 | 0.822
NCI-H1975 | 1.12 | 1.01 | 0.993 | 1.05 | 0.255 | 0.206 | 0.184 | 0.15 | 0.131 | 1.27 | 1.03 | – | 0.952 | 1.01 | 0.363 | 0.205 | 0.128 | 0.0804 | 0.0788 | 1.05
NCI-H1993 | 0.728 | 0.724 | 0.761 | 0.752 | 0.665 | 0.604 | 0.573 | 0.44 | 0.354 | 0.837 | 0.801 | 0.757 | 0.77 | 0.805 | 0.639 | 0.535 | 0.434 | 0.491 | 0.429 | 0.751
NCI-H2009 | 1.32 | 1.26 | 1.22 | 1.12 | 0.331 | 0.272 | 0.196 | 0.172 | 0.0871 | 1.02 | 0.949 | 0.87 | 0.946 | 1.05 | 0.295 | 0.312 | 0.176 | 0.19 | 0.0978 | 1.26
NCI-H2023 | 0.969 | 0.867 | 0.821 | 1.07 | 0.218 | 0.162 | 0.116 | 0.0753 | 0.0615 | 0.708 | 0.733 | 0.741 | 0.774 | 1.09 | 0.202 | 0.21 | 0.0713 | 0.0971 | 0.0603 | 0.715
NCI-H2085 | 0.763 | 0.987 | 0.914 | 1.08 | 0.527 | 0.4 | 0.463 | 0.364 | 0.352 | 0.746 | 0.693 | 0.668 | 0.69 | 0.777 | 0.721 | 0.32 | 0.355 | 0.24 | – | 0.882
NCI-H2087 | 1.44 | 1.1 | 1.22 | 1.29 | 0.28 | 0.141 | 0.094 | 0.0598 | 0.0694 | 1.28 | 1.04 | 1.27 | 1.08 | 1.22 | 0.189 | 0.206 | 0.102 | 0.0977 | 0.0926 | –
NCI-H2126 | 1.2 | 1.18 | 1.01 | 1.14 | 0.612 | 0.521 | 0.468 | 0.43 | 0.363 | 0.793 | 0.722 | 0.758 | 0.773 | 0.861 | 0.658 | 0.494 | 0.348 | 0.247 | 0.226 | 1.06
NCI-H2170 | 1.1 | 0.547 | 0.978 | 1.01 | 0.492 | – | 0.431 | 0.354 | 0.229 | 0.249 | 0.282 | 0.251 | 0.272 | 0.286 | 0.756 | – | 0.429 | 0.181 | 0.181 | 1.05
NCI-H2347 | 1.08 | 0.562 | 1.26 | 0.807 | 0.527 | 0.406 | 0.384 | 0.309 | 0.323 | 0.986 | 0.95 | 0.694 | 0.85 | 1.06 | 0.514 | 0.357 | 0.196 | 0.268 | 0.219 | 0.645
NCI-H2405 | 1.03 | 1.08 | 1.03 | 1.09 | 0.516 | 0.161 | 0.119 | 0.107 | 0.0998 | 1.24 | 1.11 | 0.969 | 1.02 | 1.39 | 0.586 | 0.256 | 0.0844 | 0.0771 | 0.0789 | 0.981
NCI-H3122 | 1.06 | 0.936 | 1.01 | 0.981 | 0.541 | – | 0.602 | – | 0.329 | 1.05 | 0.978 | 1.03 | 0.966 | 1.03 | 0.441 | – | 0.246 | 0.134 | 0.0837 | 1.01
PC-3 [JPC-3] | 1.12 | 1.11 | 1.09 | 1.05 | 0.883 | 0.586 | 0.55 | 0.422 | 0.349 | 0.476 | 0.453 | 0.422 | 0.457 | 0.449 | 0.919 | 0.598 | 0.512 | 0.321 | 0.344 | 1.14
PC-14 | 1.07 | 1.14 | 1.04 | 1.01 | 0.22 | 0.137 | 0.0771 | 0.0491 | 0.0544 | 0.349 | 0.379 | 0.315 | 0.276 | 0.311 | 0.514 | 0.218 | 0.0637 | 0.0512 | 0.0343 | 0.671
RERF-LC-KJ | 1.03 | 0.934 | 0.856 | 0.927 | 0.647 | 0.397 | 0.275 | 0.23 | 0.201 | 0.888 | 0.934 | 0.685 | 0.862 | 0.943 | 0.414 | 0.433 | 0.219 | 0.178 | 0.176 | 0.65
SK-LU-1 | 0.981 | 0.977 | 0.751 | 0.955 | 0.331 | 0.232 | 0.212 | 0.229 | 0.154 | 0.981 | 0.918 | – | 0.839 | 0.9 | 0.168 | 0.115 | – | 0.133 | 0.0818 | 0.993
SK-MES-1 | 1.13 | 1.38 | 0.88 | 1.02 | 0.32 | 0.239 | 0.204 | 0.136 | 0.121 | 0.517 | 0.497 | 0.362 | 0.372 | 0.486 | 0.52 | 0.327 | 0.149 | 0.125 | 0.125 | 0.372
SW 1573 | 1.19 | 1.17 | 0.788 | 0.955 | 0.227 | 0.15 | 0.135 | 0.0749 | 0.067 | 1.11 | 1.3 | 1.02 | 1.1 | 1.28 | 0.153 | 0.186 | 0.119 | 0.0873 | 0.069 | 0.776
